Laboratory results published in article PMC5435703 (Scientific Reports, 2017).
In brackets after ≈: the same amount, converted by molar mass. Read-outs that look alike come from different tables or passages of the source.

Tests used:
MRSE 35984 = test: MIC broth microdilution assay; format: cell-based, Staphylococcus epidermidis; conditions: Staphylococcus epidermidis, MRSE
MRSA-2 = test: MIC broth microdilution assay; format: cell-based, Staphylococcus aureus; conditions: Staphylococcus aureus, MRSA; Table 1; read-out: MIC MRSA-2
MRSA, MRSE and VRE = test: MIC assays, summary over strains; format: cell-based; conditions: read-out: MIC against all strains tested against
MRSA BAA-1707 [1] = test: MIC broth microdilution assay; format: cell-based, Staphylococcus aureus
VRE 700221 = test: MIC broth microdilution assay; format: cell-based, Enterococcus faecium; conditions: Enterococcus, VRE, Table 1; read-out: MIC VRE 700221
MRSA-1 = test: MIC broth microdilution assay; format: cell-based, Staphylococcus aureus; conditions: Staphylococcus aureus, MRSA
S. epi 12228 = test: MIC broth microdilution assay; format: cell-based, Staphylococcus epidermidis; conditions: Staphylococcus epidermidis, 12228; Table 1; read-out: MIC S. epi 12228
UV-Vis metal(II) binding = format: physicochemical; conditions: UV-Vis kinetics, compared to HP 1
Experimental: The rates of halogenated phenazine-copper(II) complex formation were independently evaluated via UV-Vis spectrometry following addition of 0.5 equivalents copper(II) sulfate to stirring solutions of HP (10 mM, 4 mL) in dimethyl sulfoxide. Spectral scanning was performed from 200 to 800 nm in 2 nm increments. The disappearance of HPs 1, 17 and 22 was observed over the indicated time points. The halogenated phenazine-copper(II) complex formation yielded a loss in absorbance due to precipitation.

MRSA BAA-1707 [2] = test: MIC assay with metal(II) cation co-treatment; format: cell-based, Staphylococcus aureus
MtB H37Ra = test: MIC assay for Mycobacterium tuberculosis; format: cell-based; conditions: 168 h, seven days
S. epidermidis = test: MIC assays, S. epidermidis strains; format: cell-based; conditions: Staphylococcus epidermidis; range over strains
four MRSA isolates = test: MIC assays, panel of four MRSA isolates; format: cell-based; conditions: Staphylococcus aureus, range over isolates, read-out: MIC against a panel of four MRSA isolates
[3] = LDH release assay for HeLa cytotoxicity; format: cell-based; conditions: human, HeLa cells; LDH release, 24 hours; tested at 25, 50 and 100 µM; read-out: HeLa Cytotox. IC50
MRSA BAA-1707 [4] = test: Calgary Biofilm Device (CBD) MBC/MBEC assay; format: cell-based, Staphylococcus aureus; conditions: for MBC: Staphylococcus aureus
MRSA-1707 biofilms = test: Live/Dead staining (fluorescence microscopy) of biofilms; conditions: 0.1, 1 and 5 µM, 24 hours
Experimental: A mid-log culture of MRSA BAA-1707 was diluted 1:1,000-fold and 500 µL was transferred to each compartment of a 4 compartment CELLview dish (Greiner Bio-One 627871). The dish was then incubated for 24 hours at 37 °C. After this time, the cultures were removed and the plate was washed with 0.9% saline. The dish was then treated with the compounds in fresh media at various concentrations. DMSO was used as our negative control in this assay. The dish was incubated with the compound for 24 hours at 37 °C. After this time, the cultures were removed and the dish was washed with 0.9% saline for 2 minutes. Saline was then removed and 500 µL of the stain (Live/Dead BacLight Viability Kit, Invitrogen) were added for 15 minutes and left in the dark. After this time, the stain was removed and the dish was washed twice with 0.9% saline. Then the dish was fixed with 500 µL 4% paraformaldehyde in PBS for 30 minutes. Images of remaining MRSA biofilms were then taken with a fluorescence microscope. All data were analyzed using ImageJ software from three independent experiments.
E.) Live / Dead staining (Fluorescence Microscopy) of MRSA BAA-1707 Biofilms: […]
the cultures were removed and the dish was washed with 0.9% saline for 2 minutes. […] Images of remaining MRSA biofilms were then taken with a fluorescence microscope. All data were analyzed using Image J software from three

[5] = Hemolysis assay with red blood cells; conditions: human, pH 7.2
MRSA BAA-44 = test: MIC broth microdilution assay; format: cell-based; conditions: Staphylococcus aureus

SMILES: Oc1c(Br)cc(Br)c2nc3c(O)c(Br)cc(Br)c3nc12 [HP 15]
- MIC (MRSE 35984; Table 1, read-out: MIC MRSE 35984): > 50 µM
- MIC (MRSA-2): > 50 µM
- MIC (MRSA, MRSE and VRE): > 50 µM
- MIC (MRSA BAA-1707 [1]; Staphylococcus aureus, Table 1, three independent experiments, read-out: MIC MRSA BAA-1707): > 50 µM
- MIC (MRSA BAA-1707 [1]; Table 1, three independent experiments, read-out: MIC MRSA BAA-1707): >50 µM
- MIC (VRE 700221): > 50 µM
- MIC (MRSA-1; Table 1, read-out: MIC MRSA-1): > 50 µM
- MIC (MRSA-1; single plate shown as picture, read-out: MIC (µM), MIC Assay Against MRSA-1): > 50 µM

SMILES: Cc1cccc2nc3c(O)c(Br)cc(Br)c3nc12 [HP 17, 6-methyl-2,4-dibromo-1-hydroxyphenazine]
- MIC (S. epi 12228): 0.39 µM (≈ 0.144 µg/mL)
- MIC (MRSE 35984; Table 3, read-out: MRSE 35984 MIC): 0.3 µM (≈ 0.11 µg/mL)
- rate of copper(II) chelation (UV-Vis metal(II) binding): faster rate than HP 1
- MIC (MRSA BAA-1707 [2]; Staphylococcus aureus, Cu(II) co-treatment plate, lanes without metal, read-out: MIC): 0.2 µM
- MIC (MRSA BAA-1707 [2]; Staphylococcus aureus, Fe(II) co-treatment plate, lanes without metal, read-out: MIC): 0.39 µM
- MIC (MRSA BAA-1707 [2]; Staphylococcus aureus, Mg(II) co-treatment plate, lanes without metal, read-out: MIC): 0.2 µM
- MIC (MRSA BAA-1707 [2]; Staphylococcus aureus, Table 2, MRSA BAA-1707, no metal(II) cation added, read-out: MIC): 0.3 µM
- MIC (MRSA BAA-1707 [2]; Staphylococcus aureus, Zn(II) extended plate assay, lanes without metal, read-out: MIC): 0.2 µM
- MIC (MRSA BAA-1707 [2]; Staphylococcus aureus, copper(II) at 200 µM co-treatment, read-out: MIC w/Cu2+): 75 µM
- MIC (MRSA BAA-1707 [2]; Staphylococcus aureus, extended plate assay, 200 µM Zn(II), read-out: MIC (µM) + Zn(II)): 0.05 µM
- MIC (MRSA BAA-1707 [2]; Staphylococcus aureus, iron(II) at 200 µM co-treatment, read-out: MIC w/Fe2+): 12.5 µM
- MIC (MRSA BAA-1707 [2]; Staphylococcus aureus, magnesium(II) at 200 µM co-treatment, read-out: MIC w/Mg2+): 0.3 µM
- MIC (MRSA BAA-1707 [2]; Staphylococcus aureus, single plate, 200 µM Fe(II), read-out: MIC (µM) + Fe(II)): 12.5 µM
- MIC (MRSA BAA-1707 [2]; Staphylococcus aureus, single plate, 200 µM Mg(II), read-out: MIC (µM) + Mg(II)): 0.2 µM
- MIC (MRSA BAA-1707 [2]; Staphylococcus aureus, zinc(II) at 200 µM co-treatment, read-out: MIC w/Zn2+): 0.05 µM
- MIC (MRSA BAA-1707 [2]; single plate, 200 µM Cu(II), read-out: MIC (µM) + Cu(II)): 50 µM
- MIC (MtB H37Ra): 25 µM (≈ 9.2 µg/mL)
- MIC (MRSA-2): 0.3 µM (≈ 0.11 µg/mL)
- MIC (S. epidermidis): 0.3 to 0.39 µM (≈ 0.11 to 0.144 µg/mL)
- MIC (MRSA BAA-1707 [1]; Staphylococcus aureus, Table 3, read-out: MRSA BAA-1707 MIC): 0.3 µM (≈ 0.11 µg/mL)
- MIC (MRSA BAA-1707 [1]; Staphylococcus aureus, single plate shown as picture, read-out: MIC (µM), MIC Assay against MRSA BAA-1707): 0.2 µM (≈ 0.0736 µg/mL)
- MIC (four MRSA isolates): 0.05 to 0.59 µM (≈ 0.0184 to 0.217 µg/mL)
- IC50 at 24 h [3]: > 100 µM
- MRSA BAA-1707 MBEC (MRSA BAA-1707 [4]; CBD, biofilm eradication, 24 hours treatment): 6.25/6.25 µM
- MRSA-1707 Biofilm Eradication MBEC (MRSA BAA-1707 [4]; Figure 7A, single CBD plate): 6.25 µM
- MBC (MRSA BAA-1707 [4]; 24 h, CBD, planktonic killing, 24 hours treatment, read-out: MRSA BAA-1707 MBC): 6.25 µM (≈ 2.3 µg/mL)
- MBC (MRSA BAA-1707 [4]; 24 h, supplement page 27, first CBD plate, read-out: MRSA Planktonic Killing MBC): 6.25 µM (≈ 2.3 µg/mL)
- MBC (MRSA BAA-1707 [4]; Figure 7A, single CBD plate, read-out: MRSA-1707 Planktonic Eradication MBC): 6.25 µM (≈ 2.3 µg/mL)
- Live/Dead staining response of established biofilms (MRSA-1707 biofilms): potent biofilm eradication and clearance response
- hemolysis at 1 h, 200 µM [5]: 6.7%
- MIC (MRSA BAA-44; single plate shown as picture, read-out: MIC (µM), MIC Assay Against MRSA BAA-44): 0.39 µM (≈ 0.144 µg/mL)
- MIC (MRSA BAA-44; Table 1, read-out: MIC MRSA BAA-44): 0.39 µM (≈ 0.144 µg/mL)
- MIC (MRSA-1; Table 1, read-out: MIC MRSA-1): ≤ 0.1 µM
